Results taken from the supplement of paper PMC10307832.

What was measured:
Assay in all cases: relative viability (nuclei count vs DMSO), 5 days (fraction); higher = more cells survive
LOU-NH91 = tested on: LOU-NH91
Summary of the method: (§1)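 For relative viability, nuclei counts in treated wells were divided by those in vehicle wells. Lung cancer cell lines had been pin-tool dosed in 1536-well plates the day after seeding and cultured for 5 days, then fixed and stained in one step (final 0.05% Triton X-100, 1% formaldehyde, 1 ug/ml Hoechst) and imaged at 4×. Doses were one drug alone or a fixed anchor-drug dose plus five library-drug doses (not always all listed) in √10 steps, and values are duplicate-plate medians.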

SW 900 = tested on: SW 900
Summary of the method: as §1

ChaGo-K-1 = tested on: ChaGo-K-1
Summary of the method: as §1

COR-L 105 = tested on: COR-L 105
Summary of the method: as §1

HCC-366 = tested on: HCC-366
Summary of the method: as §1

LK-2 = tested on: LK-2
Summary of the method: as §1

NCI-H1944 = tested on: NCI-H1944
Summary of the method: as §1

NCI-H1666 = tested on: NCI-H1666
Summary of the method: as §1

NCI-H596 = tested on: NCI-H596
Summary of the method: as §1

NCI-H441 = tested on: NCI-H441
Summary of the method: as §1

H3255 = tested on: H3255
Summary of the method: as §1

PC-3 [JPC-3] = tested on: PC-3 [JPC-3]
Summary of the method: as §1

NCI-H1792 = tested on: NCI-H1792
Summary of the method: as §1

EKVX = tested on: EKVX
Summary of the method: as §1

A-427 = tested on: A-427
Summary of the method: as §1

NCI-H1975 = tested on: NCI-H1975
Summary of the method: as §1

NCI-H520 = tested on: NCI-H520
Summary of the method: as §1

SK-MES-1 = tested on: SK-MES-1
Summary of the method: as §1

NCI-H1755 = tested on: NCI-H1755
Summary of the method: as §1

EMC-BAC-2 = tested on: EMC-BAC-2
Summary of the method: as §1

NCI-H1734 = tested on: NCI-H1734
Summary of the method: as §1

NCI-H2170 = tested on: NCI-H2170
Summary of the method: as §1

NCI-H23 = tested on: NCI-H23
Summary of the method: as §1

C[C@@H]1CN(CC(=O)Nc2ccc3c(c2)Cc2cccc(-c4cc(=O)cc(N5CCOCC5)o4)c2S3)C[C@H](C)O1 + O=C(c1cc(Cc2n[nH]c(=O)c3ccccc23)ccc1F)N1CCN(C(=O)C2CC2)CC1 [Olaparib] (partner 8 µM)
relative viability (LOU-NH91; first compound 0.04 µM): 0.938
relative viability (LOU-NH91; first compound 0.1265 µM): 0.964
relative viability (LOU-NH91; first compound 0.4 µM): 0.907
relative viability (LOU-NH91; first compound 4 µM): 0.721
relative viability (SW 900; first compound 0.04 µM): 0.869
relative viability (SW 900; first compound 0.1265 µM): 0.993
relative viability (SW 900; first compound 0.4 µM): 0.815
relative viability (SW 900; first compound 4 µM): 0.445
relative viability (ChaGo-K-1; first compound 0.04 µM): 0.461
relative viability (ChaGo-K-1; first compound 0.1265 µM): 0.428
relative viability (ChaGo-K-1; first compound 0.4 µM): 0.404
relative viability (ChaGo-K-1; first compound 4 µM): 0.389
relative viability (COR-L 105; first compound 0.04 µM): 0.772
relative viability (COR-L 105; first compound 0.1265 µM): 0.786
relative viability (COR-L 105; first compound 0.4 µM): 0.822
relative viability (COR-L 105; first compound 4 µM): 0.647
relative viability (HCC-366; first compound 0.04 µM): 0.43
relative viability (HCC-366; first compound 0.1265 µM): 0.489
relative viability (HCC-366; first compound 0.4 µM): 0.44
relative viability (HCC-366; first compound 4 µM): 0.055
relative viability (LK-2; first compound 0.04 µM): 0.852
relative viability (LK-2; first compound 0.1265 µM): 0.724
relative viability (LK-2; first compound 0.4 µM): 0.575
relative viability (LK-2; first compound 4 µM): 0.321
relative viability (NCI-H1944; first compound 0.1265 µM): 0.371
relative viability (NCI-H1944; first compound 0.4 µM): 0.386
relative viability (NCI-H1944; first compound 4 µM): 0.321
relative viability (NCI-H1666; first compound 0.04 µM): 0.713
relative viability (NCI-H1666; first compound 0.1265 µM): 0.767
relative viability (NCI-H1666; first compound 0.4 µM): 0.659
relative viability (NCI-H1666; first compound 4 µM): 0.468
relative viability (NCI-H596; first compound 0.04 µM): 0.601
relative viability (NCI-H596; first compound 0.1265 µM): 0.624
relative viability (NCI-H596; first compound 0.4 µM): 0.641
relative viability (NCI-H596; first compound 4 µM): 0.486
relative viability (NCI-H441; first compound 0.04 µM): 0.636
relative viability (NCI-H441; first compound 0.1265 µM): 0.551
relative viability (NCI-H441; first compound 0.4 µM): 0.507
relative viability (NCI-H441; first compound 4 µM): 0.141
relative viability (H3255; first compound 0.04 µM): 0.554
relative viability (H3255; first compound 0.1265 µM): 0.532
relative viability (H3255; first compound 0.4 µM): 0.522
relative viability (H3255; first compound 4 µM): 0.452
relative viability (PC-3 [JPC-3]; first compound 0.04 µM): 1.17
relative viability (PC-3 [JPC-3]; first compound 0.1265 µM): 1.08
relative viability (PC-3 [JPC-3]; first compound 0.4 µM): 1.16
relative viability (PC-3 [JPC-3]; first compound 4 µM): 0.608
relative viability (NCI-H1792; first compound 0.04 µM): 0.715
relative viability (NCI-H1792; first compound 0.1265 µM): 0.407
relative viability (NCI-H1792; first compound 0.4 µM): 0.315
relative viability (NCI-H1792; first compound 4 µM): 0.102
relative viability (EKVX; first compound 0.04 µM): 0.862
relative viability (EKVX; first compound 0.1265 µM): 0.921
relative viability (EKVX; first compound 0.4 µM): 0.914
relative viability (EKVX; first compound 4 µM): 0.399
relative viability (A-427; first compound 0.04 µM): 0.658
relative viability (A-427; first compound 0.1265 µM): 0.734
relative viability (A-427; first compound 0.4 µM): 0.731
relative viability (A-427; first compound 4 µM): 0.669
relative viability (NCI-H1975; first compound 0.04 µM): 0.78
relative viability (NCI-H1975; first compound 0.1265 µM): 0.748
relative viability (NCI-H1975; first compound 0.4 µM): 0.713
relative viability (NCI-H1975; first compound 4 µM): 0.274
relative viability (NCI-H520; first compound 0.04 µM): 0.43
relative viability (NCI-H520; first compound 0.1265 µM): 0.308
relative viability (NCI-H520; first compound 0.4 µM): 0.31
relative viability (NCI-H520; first compound 4 µM): 0.202
relative viability (SK-MES-1; first compound 0.04 µM): 0.78
relative viability (SK-MES-1; first compound 0.1265 µM): 0.721
relative viability (SK-MES-1; first compound 0.4 µM): 0.686
relative viability (SK-MES-1; first compound 4 µM): 0.252
relative viability (NCI-H1755; first compound 0.04 µM): 0.845
relative viability (NCI-H1755; first compound 0.1265 µM): 0.918
relative viability (NCI-H1755; first compound 0.4 µM): 0.833
relative viability (NCI-H1755; first compound 4 µM): 0.958
relative viability (EMC-BAC-2; first compound 0.04 µM): 0.512
relative viability (EMC-BAC-2; first compound 0.1265 µM): 0.579
relative viability (EMC-BAC-2; first compound 0.4 µM): 0.513
relative viability (EMC-BAC-2; first compound 4 µM): 0.263
relative viability (NCI-H1734; first compound 0.04 µM): 0.73
relative viability (NCI-H1734; first compound 0.1265 µM): 0.573
relative viability (NCI-H1734; first compound 0.4 µM): 0.613
relative viability (NCI-H1734; first compound 4 µM): 0.551
relative viability (NCI-H2170; first compound 0.04 µM): 0.648
relative viability (NCI-H2170; first compound 0.1265 µM): 0.609
relative viability (NCI-H2170; first compound 0.4 µM): 0.578
relative viability (NCI-H2170; first compound 4 µM): 0.523
relative viability (NCI-H23; first compound 0.04 µM): 0.352
relative viability (NCI-H23; first compound 0.1265 µM): 0.317
relative viability (NCI-H23; first compound 0.4 µM): 0.264
relative viability (NCI-H23; first compound 4 µM): 0.227
